Source: patent publication US20080118918A1, “Compositions and Methods For Determining and Predicting Treatment Responses For Depression and Anxiety” (THE REGENTS of the University of California, priority 2004, published 2008)

Columns and labels:
[1] = system: depressed Mexican-Americans; assay: prospective randomized, placebo lead-in, double-blind treatment of fluoxetine or desipramine for eight weeks; HAM-A and HAM-D changes stratified by CRHR1 GAG haplotype; format: in vivo, human; conditions: fluoxetine 10 mg-40 mg/day vs desipramine 50 mg-200 mg/day, 8 weeks
From the text: The primary outcome measures of the association analysis were the changes in the Hamilton rating scales for anxiety (HAM-A) and depression (HAM-D).
All patients were followed weekly and assessed for changes in the Hamilton rating scales for anxiety (HAM-A) and depression (HAM-D). Inclusion criteria in the study included a HAM-D of 18 or higher. Patients were classified into a high anxiety (HA) group if their HAM-A score was 18 or higher and in a low anxiety (LA) group if their HAM-A score was less than 18.
The study population consisted of 233 depressed subjects enrolled in an ongoing pharmacogenetic study of antidepressant treatment response to desipramine or fluoxetine. Data from the first 80 subjects who completed the protocol and for whom we had available genetic data are reported herein. […] All patients are Mexican-American men and women ages 21-68, with a current episode of major depression as diagnosed by the DSM-IV. In this study, all Mexican-American subjects had at least three grandparents born in Mexico. […]
Eighty subjects were divided into a low anxiety group (LA) with HAM-A score less than 18 at screening and a high anxiety group (HA), with HAM-A scores that were 18 or higher at screening. […] Demographics of the LA group and HA group were assessed for homogeneity using χ^2 or t-tests, as appropriate.

CNS CRH gene expression = conditions: in vivo; cited from earlier work

Structure (SMILES)	antidepressant effectiveness, comparison of the two drugs [1]	effects on downregulating CNS CRH gene expression (CNS CRH gene expression)
CNCCCN1c2ccccc2CCc2ccccc21 [desipramine]	no differences between the two drugs in terms of antidepressant effectiveness have been observed	equal effects on downregulating CNS CRH gene expression
CNCCC(Oc1ccc(C(F)(F)F)cc1)c1ccccc1 (stereo not shown) [fluoxetine]	no differences between the two drugs in terms of antidepressant effectiveness have been observed	equal effects on downregulating CNS CRH gene expression
